Assay results from ChEMBL document CHEMBL4130433, “Acridone-pyrimidine hybrids- design, synthesis, cytotoxicity studies in resistant and sensitive cancer cells and molecular docking studies” (Eur J Med Chem, 2017).

Legend:
K562 = test: Cytotoxicity against human K562 cells by MTT assay; format: functional, cell-based
MDA-MB-231 [1] = test: Antiproliferative activity against human MDA-MB-231 cells after 72 hrs by MTT assay; format: functional, cell-based; conditions: MDA-MB-231, 72 h
HeLa = test: Antiproliferative activity against human HeLa cells after 72 hrs by MTT assay; format: functional, cell-based
MCF7 [2] = test: Antiproliferative activity against human MCF7 cells after 72 hrs by MTT assay; format: functional, cell-based; conditions: MCF7, 72 h
[3] = Cytotoxicity against African green monkey Vero cells after 72 hrs by MTT assay; format: cell-based; conditions: chlorocebus sabaeus
[4] = target: RAC-alpha serine/threonine-protein kinase (Homo sapiens, UniProt P31749); test: Inhibition of PH domain lacking AKT1 (unknown origin) using Tamara-labeled GRPRTSSFAEG peptide as substrate after 90 mins by fluorescence polarization IMAP assay
Chain of RAC-alpha serine/threonine-protein kinase (P31749 whole entry, the tested form may be a part): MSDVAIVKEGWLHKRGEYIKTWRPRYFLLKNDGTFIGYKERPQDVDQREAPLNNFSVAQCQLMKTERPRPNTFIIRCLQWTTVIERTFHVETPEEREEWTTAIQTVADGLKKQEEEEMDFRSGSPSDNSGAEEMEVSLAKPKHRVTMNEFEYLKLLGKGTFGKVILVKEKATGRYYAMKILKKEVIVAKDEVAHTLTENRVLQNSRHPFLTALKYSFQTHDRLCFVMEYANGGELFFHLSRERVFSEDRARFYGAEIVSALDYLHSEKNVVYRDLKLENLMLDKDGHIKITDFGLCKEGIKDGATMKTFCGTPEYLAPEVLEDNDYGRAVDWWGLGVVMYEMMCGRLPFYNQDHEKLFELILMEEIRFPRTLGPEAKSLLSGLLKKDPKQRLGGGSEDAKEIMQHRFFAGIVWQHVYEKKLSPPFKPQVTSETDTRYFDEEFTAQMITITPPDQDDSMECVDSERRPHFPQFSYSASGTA

A549 = test: cells; conditions: Homo sapiens, A549, 72 h
Description: Antiproliferative activity against human A549 cells after 72 hrs by MTT assay

MDA-MB-231 [5] = test: Effect on total AKT protein expression in human MDA-MB-231 cells at antiproliferative IC50 after 48 hrs by Western blot method; format: cell-based; conditions: mda-mb-231, 48 h
MCF7 [6] = test: Cytotoxicity against human MCF7 cells by MTT assay; format: functional, cell-based
2008 [7] = test: Antiproliferative activity against human 2008 cells after 72 hrs by MTT assay; format: functional, cell-based; conditions: Homo sapiens, 2008, 72 h
2008 [8] = test: Antiproliferative activity against resistant human 2008 cells clone 4 harboring MRP1 after 72 hrs by MTT assay; format: functional, cell-based; conditions: Homo sapiens, 2008, 72 h
2008 [9] = test: Antiproliferative activity against resistant human 2008 cells clone 6 harboring MRP1 after 72 hrs by MTT assay; format: functional, cell-based; conditions: Homo sapiens, 2008, 72 h
SW1573 [10] = test: Antiproliferative activity against human SW1573 cells after 72 hrs by MTT assay; format: functional, cell-based; conditions: SW1573, 72 h
SW1573 [11] = test: Antiproliferative activity against resistant human SW1573 2R 120 cells harboring MRP1 after 72 hrs by MTT assay; format: functional, cell-based; conditions: SW1573, 72 h
SW1573 [12] = test: Antiproliferative activity against resistant human SW1573 2R 160 cells harboring P-gp after 72 hrs by MTT assay; format: functional, cell-based; conditions: SW1573, 72 h
[13] = Antiproliferative activity against human MCF7/MX cells after 72 hrs by MTT assay; format: functional, cell-based
[14] = Antiproliferative activity against human MCF7/DX cells after 72 hrs by MTT assay; format: functional, cell-based

In the case of Cc1cccc2c(=O)c3c(NCc4ccccc4)ccc(C(=O)NCCN(C)C)c3[nH]c12, the IC50 (K562) is reported as 0.46 µM.
CCOC(=O)c1c(C)nc(NNC(=O)c2cccc3c(=O)c4ccccc4[nH]c23)nc1-c1ccc(F)cc1 showed an IC50 (MDA-MB-231 [1]) of over 100 µM, an IC50 (HeLa) of 47.1 µM and an IC50 (MCF7 [2]) of over 100 µM. For the same compound, the CC50 at 72 h [3] was 58.2 µM, the IC50 [4] was 0.176 µM and the IC50 (A549) was over 100 µM.
In the case of CCOC(=O)c1c(C)nc(NNC(=O)c2cccc3c(=O)c4ccccc4[nH]c23)nc1-c1ccccc1F, the IC50 (MDA-MB-231 [1]) is reported as 6.28 µM, the IC50 (HeLa) is reported as 52.6 µM and the IC50 (MCF7 [2]) is reported as 7.3 µM. For the same compound, the CC50 at 72 h [3] was 61.3 µM, the Activity (MDA-MB-231 [5]) was “Non-Toxic” and the IC50 [4] was 0.0082 µM. It also gave an IC50 (A549) of 3.12 µM.
CCOC(=O)c1c(C)nc(NNC(=O)c2cccc3c(=O)c4ccccc4[nH]c23)nc1-c1ccc(C)cc1 showed an IC50 (MDA-MB-231 [1]) of 5.6 µM, an IC50 (HeLa) of 48.5 µM and an IC50 (MCF7 [2]) of 11.4 µM. The CC50 at 72 h [3] was 72.3 µM, the IC50 [4] was 0.98 µM and the IC50 (A549) was 9.74 µM.
In the case of COC(=O)c1c(C)nc(NNC(=O)c2cccc3c(=O)c4ccccc4[nH]c23)nc1-c1ccc(OC)cc1, the IC50 (MDA-MB-231 [1]) is reported as 74.5 µM, the IC50 (HeLa) is reported as 37.4 µM and the IC50 (MCF7 [2]) is reported as 52.1 µM. The CC50 at 72 h [3] was 86.2 µM, the IC50 [4] was 0.64 µM and the IC50 (A549) was 44.8 µM.
Compound CCOC(=O)c1c(C)nc(NNC(=O)c2cccc3c(=O)c4ccccc4[nH]c23)nc1-c1cccc(OC)c1 has an IC50 (MDA-MB-231 [1]) of over 100 µM, an IC50 (HeLa) of over 100 µM and an IC50 (MCF7 [2]) of over 100 µM. For the same compound, the CC50 at 72 h [3] was 64.1 µM, the IC50 [4] was 0.251 µM and the IC50 (A549) was over 100 µM.
Compound CCOC(=O)c1c(C)nc(NNC(=O)c2cccc3c(=O)c4ccccc4[nH]c23)nc1-c1ccccc1 has an IC50 (MDA-MB-231 [1]) of 19.6 µM, an IC50 (HeLa) of 45.8 µM and an IC50 (MCF7 [2]) of 15.6 µM. For the same compound, the CC50 at 72 h [3] was 92.8 µM, the Activity (MDA-MB-231 [5]) was “Non-Toxic” and the IC50 [4] was 0.0047 µM. For the same compound, the IC50 (A549) was 8.49 µM.
In the case of COC(=O)c1c(C)nc(NNC(=O)c2cccc3c(=O)c4ccccc4[nH]c23)nc1-c1ccccc1F, the IC50 (MDA-MB-231 [1]) is reported as 41.6 µM, the IC50 (HeLa) is reported as 67.3 µM and the IC50 (MCF7 [2]) is reported as 25.7 µM. The CC50 at 72 h [3] was 76.1 µM, the IC50 [4] was 0.432 µM and the IC50 (A549) was 20.6 µM.
COc1ccc(Cn2cc(Cn3c4ccccc4c(=O)c4cc(OC)ccc43)nn2)cc1 gave an IC50 (MCF7 [6]) of 11 µM.
With COC(=O)c1c(C)nc(NNC(=O)c2cccc3c(=O)c4ccccc4[nH]c23)nc1-c1ccc(F)cc1 the IC50 (MDA-MB-231 [1]) was 56.2 µM, the IC50 (HeLa) was 44.5 µM and the IC50 (MCF7 [2]) was 33 µM. It also gave a CC50 at 72 h [3] of 78.2 µM, an IC50 2008 [7] of 23 µM and an IC50 2008 [8] of 24 µM. The IC50 2008 [9] was 27 µM, the IC50 (SW1573 [10]) was 75 µM and the IC50 (SW1573 [11]) was over 100 µM. The IC50 (SW1573 [12]) was 62 µM, the IC50 [13] was 30 µM and the IC50 [14] was 45 µM. It also gave an IC50 [4] of 0.313 µM and an IC50 (A549) of 36.5 µM.
For CCOC(=O)c1c(C)nc(NNC(=O)c2cccc3c(=O)c4ccccc4[nH]c23)nc1-c1ccc(OC)cc1, the IC50 (MDA-MB-231 [1]) was 7.12 µM, the IC50 (HeLa) was 74.5 µM and the IC50 (MCF7 [2]) was 10.5 µM. For the same compound, the CC50 at 72 h [3] was 82.3 µM, the Activity (MDA-MB-231 [5]) was “Non-Toxic” and the IC50 [4] was 0.00172 µM. For the same compound, the IC50 (A549) was 3.26 µM.
For COC(=O)c1c(C)nc(NNC(=O)c2cccc3c(=O)c4ccccc4[nH]c23)nc1-c1cccc(OC)c1, the IC50 (MDA-MB-231 [1]) was 58.3 µM, the IC50 (HeLa) was 72.6 µM and the IC50 (MCF7 [2]) was 32 µM. It also gave a CC50 at 72 h [3] of 95.1 µM, an IC50 2008 [7] of 34 µM and an IC50 2008 [8] of 74 µM. The IC50 2008 [9] was 72 µM, the IC50 (SW1573 [10]) was 5 µM and the IC50 (SW1573 [11]) was over 100 µM. The IC50 (SW1573 [12]) was 10 µM, the IC50 [13] was 30 µM and the IC50 [14] was 78 µM. For the same compound, the IC50 [4] was 0.482 µM and the IC50 (A549) was 27.2 µM.
Compound CCOC(=O)c1c(C)nc(NNC(=O)c2cccc3c(=O)c4ccccc4[nH]c23)nc1-c1ccc(OC)c(OC)c1 has an IC50 (MDA-MB-231 [1]) of 47.3 µM, an IC50 (HeLa) of 57.5 µM and an IC50 (MCF7 [2]) of 26 µM. The CC50 at 72 h [3] was 84.3 µM, the IC50 2008 [7] was 15 µM and the IC50 2008 [8] was 25 µM. For the same compound, the IC50 2008 [9] was 19 µM, the IC50 (SW1573 [10]) was 45 µM and the IC50 (SW1573 [11]) was 38 µM. For the same compound, the IC50 (SW1573 [12]) was 62 µM, the IC50 [13] was 38 µM and the IC50 [14] was 30 µM. For the same compound, the IC50 [4] was 0.115 µM and the IC50 (A549) was 41.7 µM.
COC(=O)c1c(C)nc(NNC(=O)c2cccc3c(=O)c4ccccc4[nH]c23)nc1-c1ccccc1 showed an IC50 (MDA-MB-231 [1]) of 47.4 µM, an IC50 (HeLa) of 56.7 µM and an IC50 (MCF7 [2]) of 36.2 µM. For the same compound, the CC50 at 72 h [3] was 80 µM, the IC50 [4] was 0.056 µM and the IC50 (A549) was 20.4 µM.
CCOC(=O)c1c(C)nc(NNC(=O)c2cccc3c(=O)c4ccccc4[nH]c23)nc1CC(C)C gave an IC50 (MDA-MB-231 [1]) of 8.61 µM, an IC50 (HeLa) of 39.1 µM and an IC50 (MCF7 [2]) of 4.32 µM. For the same compound, the CC50 at 72 h [3] was 78.2 µM, the Activity (MDA-MB-231 [5]) was “Non-Toxic” and the IC50 [4] was 0.012 µM. The IC50 (A549) was 3.9 µM.
COC(=O)c1c(C)nc(NNC(=O)c2cccc3c(=O)c4ccccc4[nH]c23)nc1-c1ccc(C)cc1 gave an IC50 (MDA-MB-231 [1]) of 23.7 µM, an IC50 (HeLa) of 76.4 µM and an IC50 (MCF7 [2]) of 45.2 µM. It also gave a CC50 at 72 h [3] of 64.2 µM, an IC50 [4] of 0.738 µM and an IC50 (A549) of 40.5 µM.
With COc1cccc2c1C(=O)c1c(O)c3c(c(O)c1C2=O)C[C@@](O)(C(=O)CO)C[C@@H]3O[C@H]1C[C@H](N)[C@H](O)[C@H](C)O1 [DOXORUBICIN] the Activity (MDA-MB-231 [5]) was “Non-Toxic” and the IC50 (A549) was 10.2 µM.
Work on C#Cc1cccc(Nc2ncnc3cc(OCCOC)c(OCCOC)cc23)c1 [ERLOTINIB] yielded an IC50 (A549) of 21.3 µM.
